Converted amounts (≈) assume the structure as drawn.

The subject of data set [1] is ATCC 10261 Candida albicans. As to the kind of experiment: Antifungal activity, growth inhibition of Candida albicans culture. To be noted: concentration inducing 50% inhibition of strain growth; liquid Sabouraud medium, 24 hours at 30° C., spectrophotometry at 660 nm. Format: cell-based. The procedure:
More particularly, each compound was incubated at different concentrations with a culture of ATCC 10261 Candida albicans (inoculum, […]) in liquid Sabouraud medium for 24 hours at 30° C. Cell growth was then measured by spectrophotometry at a wavelength of 660 nm.

The subject of data set [2] is 27-mer oligonucleotide (ODN) in 10% (v/v) foetal calf serum. As to the kind of experiment: Seric degradation of delivered oligonucleotide, gel autoradiography. To be noted: +/− charge ratio 10, 10% (v/v) foetal calf serum, 37° C., up to 16 hours; versus non delivered ODN. Here is the method:
A 27-mer oligonucleotide (ODN) was rendered radioactive by labelling at the 5′ end with ^32P using a standard procedure (Pharmacia) using T4 polynucleotide kinase and ^32(γ)ATP. A small quantity of this ^32P labelled ODN was mixed with cold ODN. AmA was added in a concentration such that the +/− charge ratio was 10 and the complex was allowed to form at ambient temperature for 30 minutes. A sample containing no AmA constituted the control (non delivered ODN). ODN degradation was triggered at time 0 at 37° C. by adding 10% (v/v) foetal calf serum in which the enzymatic activity was essentially 3′-exonucleasic (Sirotkin, Cooley et al., 1978). At intervals, samples were removed for which the action of the enzymes was stopped by adding formamide and placing the tube in ice. The reaction wsa stopped after 4, 6, 8 and 16 hours of incubation with the serum. The samples were then migrated on a denaturing (7 M urea) 20% polyacrylamide gel.

Data set [3] has as its system P-gp in NIH-MDR G185 cells (3T3 R). It counts as cell-based, human.
In data set [4] the test system is 3T3 cells. In words: Internalisation of FITC-labelled antisense oligonucleotide, confocal microspectrofluorimetry. To be noted: 4 hours. Format: cell-based.
The next data set concerns MCF 7 cells. As to the kind of experiment: Internalisation of FITC-labelled anti-gene oligonucleotide. It counts as cell-based, human. To be noted: charge ratio 5, compared with AmE, Lipofectine or free oligonucleotides.
Data set [5] concerns 3T3 cells. In words: Toxicity of AmA with or without antisense oligonucleotide, MTT cellular viability. To be noted: 4 hours at 37° C.

Chain of P-gp in NIH-MDR G185 cells (3T3 R) (P08183 whole entry): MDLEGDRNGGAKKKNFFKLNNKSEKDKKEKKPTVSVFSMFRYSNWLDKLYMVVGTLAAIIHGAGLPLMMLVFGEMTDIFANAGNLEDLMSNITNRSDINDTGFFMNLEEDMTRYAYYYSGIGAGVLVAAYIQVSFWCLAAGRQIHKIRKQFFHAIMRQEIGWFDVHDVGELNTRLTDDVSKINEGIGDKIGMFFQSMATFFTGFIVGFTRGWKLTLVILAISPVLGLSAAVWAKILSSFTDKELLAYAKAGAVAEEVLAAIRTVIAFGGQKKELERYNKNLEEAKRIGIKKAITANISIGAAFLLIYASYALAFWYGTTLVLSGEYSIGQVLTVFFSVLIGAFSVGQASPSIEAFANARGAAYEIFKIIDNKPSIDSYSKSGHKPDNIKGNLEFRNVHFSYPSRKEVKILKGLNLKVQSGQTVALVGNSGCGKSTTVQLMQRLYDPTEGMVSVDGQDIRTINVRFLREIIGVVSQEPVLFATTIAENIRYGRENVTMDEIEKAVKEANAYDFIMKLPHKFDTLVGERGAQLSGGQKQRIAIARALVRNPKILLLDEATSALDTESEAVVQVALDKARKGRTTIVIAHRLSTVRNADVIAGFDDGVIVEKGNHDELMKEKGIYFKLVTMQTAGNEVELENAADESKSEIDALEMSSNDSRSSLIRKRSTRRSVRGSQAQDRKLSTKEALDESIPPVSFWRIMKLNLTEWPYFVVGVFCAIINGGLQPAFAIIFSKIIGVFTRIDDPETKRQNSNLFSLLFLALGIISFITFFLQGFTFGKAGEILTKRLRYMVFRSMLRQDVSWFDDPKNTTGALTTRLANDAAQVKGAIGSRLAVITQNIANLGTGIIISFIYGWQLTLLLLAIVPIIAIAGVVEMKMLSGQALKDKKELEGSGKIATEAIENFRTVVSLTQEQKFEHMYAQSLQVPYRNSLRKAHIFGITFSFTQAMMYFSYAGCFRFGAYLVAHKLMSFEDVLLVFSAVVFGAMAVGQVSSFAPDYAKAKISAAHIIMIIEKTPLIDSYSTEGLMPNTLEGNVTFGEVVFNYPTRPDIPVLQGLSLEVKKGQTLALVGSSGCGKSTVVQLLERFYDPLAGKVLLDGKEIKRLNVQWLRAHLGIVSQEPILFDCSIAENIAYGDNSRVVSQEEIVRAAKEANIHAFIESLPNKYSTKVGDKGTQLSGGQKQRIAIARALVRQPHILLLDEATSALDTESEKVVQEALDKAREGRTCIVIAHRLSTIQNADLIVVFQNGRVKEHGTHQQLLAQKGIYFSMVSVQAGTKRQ

N-(1-piperdinepropionyl) AME [PAME]: the IC50 in data set [1] was 0.15 µg/mL. The compound “Amphotericin B (N^2-lysyllysine methylester) amide [AMDLA]” displayed an IC50 in data set [1] of 0.12 µg/mL. This IC50 and that of the compound before are within 1.5-fold of each other. The same measure, in the same setting: to “2-dimethylaminoethyl ester of amphotericin B [AMEE]” belongs 0.08 µg/mL.

As to N-ornithyl-AMA [OAMA], the IC50 in data set [1] turned out to be 0.15 µg/mL. This IC50 lies about 1.9-fold higher than the previous one. In data set [1], “L-aspartate salt of OAMA [OAMA L-aspartate]” yielded an IC50 of 0.17 µg/mL. The same measure, in the same setting: the result for “Amphotericin B-2-(morpholyl)ethylamide [AMMEA]” reads 0.013 µg/mL. Turning to `CC1C=CC=CC=CC=CC=CC=CC=CC(OC2OC(C)C(O)C(N)C2O)CC2OC(O)(CC(O)CC(O)C(O)CCC(O)CC(O)CC(=O)OC(C)C(C)C1O)CC(O)C2C(=O)N1CCN(C)CC1` (stereo not drawn) [AMPA, Amphotericin B B-4-methylpiperizyne amide], in data set [1], the IC50 worked out at 0.015 µg/mL (≈ 0.0149 µM). In the case of “N-(Nα, Nα, Nα,Nε, Nε, Nε,-hexamethyl) AME [MLAME]”, the IC50 in data set [1] turned out to be 0.15 µg/mL. Still for that read-out and setting: to “Amphotericin B 3-dimethylaminopropyl ester [AMPE]” belongs 0.10 µg/mL. The same measure, in the same setting: the result for `CC1C=CC=CC=CC=CC=CC=CC=CC(OC2OC(C)C(O)C(N)C2O)CC2OC(O)(CC(O)CC(O)C(O)CCC(O)CC(O)CC(=O)OC(C)C(C)C1O)CC(O)C2C(=O)NCCc1ccccn1` (stereo not drawn) [AMPEA, Amphotericin B 2-(2-pyridyl)ethylamide] reads 0.015 µg/mL (≈ 0.0146 µM); that for Amphotericin B N1-sperminylamide [AMSA], 0.10 µg/mL; that for “N-(N′-3-dimethylaminopropyl-succinimido) amphotericin B methyl ester [SAME]”, 0.125 µg/mL. With “N-(4-methyl-1-piperazinepropionyl) AMPA [PAMPA]”, in data set [1], the IC50 is 0.17 µg/mL.

For the compound “N-(4-methyl-1-piperazinepropionyl)AME [PNAME]”, in data set [1], the half-maximal inhibitory concentration (IC50) came to 0.16 µg/mL.

As for “Amphotericin B dimethylaminopropylamide [AMA]”, in data set [2], the “seric degradation of the delivered oligonucleotide” value is “slowed that degradation”. Further, the “synthesis of P-gp, possible vector effect” value in data set [3] is on record as “did not itself inhibit synthesis of P-gp”. The “intracellular distribution of fluorescence” value with 3T3 cells [4] (nucleus versus cytoplasm) is reported as “distributed homogeneously inside the cells”. Moreover, the “internalisation of fluorescent oligonucleotide (fluorescence intensity of cells)” value is on record as “much greater internalisation” with 3T3 cells [4] (AmA 1×10^−5 M and 2×10^−5 M, compared with AmE, Lipofectine (20 μg/ml) or the oligonucleotides alone); “much greater internalisation” in the data set on MCF 7 cells. For the same compound, the “concentration below which cell growth appears to have been stimulated” value with 3T3 cells [5] (MTT) is listed as “below 10^−5 M”. The “concentration below which no toxicity was observed (cellular viability, MTT)” value in the data set with 3T3 cells [5] (serum-free DMEM, AmA in the presence or absence of oligonucleotide) is reported as “below 2×10^−5 M”.

The values are drawn from US20040002465A1, “Polyene macrolide derivatives, use for vectoring molecules” (UNIVERSITE PIERRE ET MARIE CURIE, priority 1998, published 2004).
